Experimental data from ChEMBL document CHEMBL2390848, “Anticancer effect of altersolanol A, a metabolite produced by the endophytic fungus Stemphylium globuliferum, mediated by its pro-apoptotic and anti-invasive potential via the inhibition of NF-κB activity” (Bioorg Med Chem, 2013).
Calls of active or inactive are those of the source. The rule behind the calls is not given here.

Experiments:
K562 [1] = experiment: Cytotoxicity against human K562 cells at 0.5 to 100 uM after 8 to 72 hrs by trypan blue exclusion test; type: functional, cell-based
K562 [2] = experiment: Cytotoxicity against human K562 cells after 48 hrs by trypan blue exclusion test; type: functional, cell-based; settings: K562, 48 h
[3] = (§1) Inhibition of TNFalpha-induced NF-kappa-B transcriptional activity in human K562 cells pretreated with compound for 2 hrs measured 6 hrs post TNFalpha challenge by luciferase reporter gene assay; type: cell-based
K562 [4] = experiment: as §1; type: cell-based
K562 [5] = experiment: Cytotoxicity against human K562 cells after 24 hrs by trypan blue exclusion test; type: functional, cell-based; settings: K562, 24 h
K562 [6] = experiment: Cell cycle arrest in human K562 cells assessed as accumulation at sub-G1 phase at 0.2 to 10 uM by flow cytometry; type: functional, cell-based; settings: TDE = time-dependent effect
K562 [7] = experiment: Induction of apoptosis in human K562 cells assessed as cleavage of caspase-9 after 16 to 24 hrs by Western blot analysis; type: functional, cell-based
PBMC [8] = experiment: Cytotoxicity against human PBMCs after 24 hrs by trypan blue exclusion test; type: cell-based
K562 [9] = experiment: Induction of apoptosis in human K562 cells assessed as reduction in Bcl-xL expression after 16 to 72 hrs by Western blot analysis; type: functional, cell-based
K562 [10] = experiment: Induction of apoptosis in human K562 cells assessed as reduction in Mcl-1 expression after 16 to 72 hrs by Western blot analysis; type: functional, cell-based
K562 [11] = experiment: Cell cycle arrest in human K562 cells assessed as accumulation at sub-G1 phase at 4 uM after 48 hrs by flow cytometry relative to untreated control; type: functional
K562 [12] = experiment: Antiproliferative activity against human K562 cells measured at 6 hrs over 120 hrs by videomicroscopy analysis; type: functional, cell-based
K562 [13] = experiment: Induction of apoptosis in human K562 cells assessed as cleavage of caspase-3 after 16 to 24 hrs by Western blot analysis; type: functional, cell-based
K562 [14] = experiment: Cell cycle arrest in human K562 cells assessed as accumulation at sub-G1 phase after 16 hrs by flow cytometry relative to untreated control; type: functional
K562 [15] = experiment: Induction of apoptosis in human K562 cells assessed as reduction in XIAP expression after 16 to 72 hrs by Western blot analysis; type: functional, cell-based
PBMC [16] = experiment: Effect on metabolism of human PBMCs after 24 hrs by CellTiter-Glo luminescent cell viability assay; type: functional, cell-based
K562 [17] = experiment: Cell cycle arrest in human K562 cells assessed as accumulation at sub-G1 phase after 16 to 72 hrs by flow cytometry; type: functional, cell-based
A549 [18] = experiment: Cytotoxicity against human A549 cells after 24 hrs by XTT assay; type: functional, cell-based; settings: A549, 24 h
K562 [19] = experiment: Induction of apoptosis in human K562 cells after 16 to 72 hrs using annexin V-propidium iodide staining by FACS analysis; type: functional, cell-based
K562 [20] = experiment: Cell cycle arrest in human K562 cells assessed as accumulation at sub-G1 phase after 24 hrs by flow cytometry relative to untreated control; type: functional
A549 [21] = experiment: Antimigratory activity against human A549 cells treated at 25 uM after scratching measured at 6 hrs interval over 120 hrs by scratch-wound assay; type: functional, cell-based
K562 [22] = experiment: Cell cycle arrest in human K562 cells assessed as accumulation at sub-G1 phase at 4 uM after 72 hrs by flow cytometry relative to untreated control; type: functional
A549 [23] = experiment: Antiproliferative activity against human A549 cells measured at 6 hrs over 120 hrs by videomicroscopy analysis; type: functional, cell-based
K562 [24] = experiment: Cytotoxicity against human K562 cells at 100 uM after 24 hrs by trypan blue exclusion test; type: functional, cell-based
K562 [25] = experiment: Inhibition of TNFalpha-induced NF-kappa-B transcriptional activity in human K562 cells pretreated with compound at 100 uM for 2 hrs measured 6 hrs post TNFalpha challenge by luciferase reporter gene assay; type: cell-based

With COc1cc(OC(C)=O)c2c(c1)C(=O)C1=C(C2=O)[C@H](OC(C)=O)[C@@H](OC(C)=O)[C@@](C)(O)[C@@H]1OC(C)=O the Activity (K562 [1]) was “Active”, the EC50 (K562 [2]) was 2.5 µM and the IC50 [3] was 4.64 µM. For the same compound, the inhibition (K562 [4]) was “Dose-dependent effect” and the EC50 (K562 [5]) was 4 µM.

With COc1cc(O)c2c(c1)C(=O)C1=C(C2=O)[C@H](O)[C@@H](O)[C@@](C)(O)[C@@H]1O [ALTERSOLANOL A] the Activity (K562 [6]) was “tde”, the Activity (K562 [7]) was “Dose-dependent effect” and the Activity (PBMC [8]) was “Non-toxic”. For the same compound, the Activity (K562 [9]) was “Dose-dependent effect”, the Activity (K562 [10]) was “Dose-dependent effect” and the Activity (K562 [1]) was “Active”. The Activity (K562 [11]) was 65%, the EC50 (K562 [12]) was > 1 µM and the EC50 (K562 [2]) was 2.5 µM. For the same compound, the Activity (K562 [13]) was “Dose-dependent effect”, the Activity (K562 [14]) was 40% and the Activity (K562 [15]) was “Dose-dependent effect”. The EC50 (PBMC [16]) was 4.2 µM, the Activity (K562 [17]) was “Dose-dependent effect” and the EC50 (A549 [18]) was 29.5 µM. For the same compound, the IC50 [3] was 0.8 µM, the inhibition (K562 [4]) was “Dose-dependent effect” and the Activity (K562 [19]) was “Dose-dependent effect”. The Activity (K562 [20]) was 40%, the Activity (A549 [21]) was “Active” and the Activity (K562 [22]) was 65%. For the same compound, the EC50 (K562 [5]) was 4 µM and the EC50 (A549 [23]) was > 2 µM.

With COc1cc(O)c2c(c1)[C@H](O)[C@@H]1[C@@H](C2=O)[C@H](O)[C@@H](O)[C@@](C)(O)[C@@H]1O the Activity (K562 [24]) was “inactive” and the inhibition (K562 [25]) was “inactive”.

In the case of COc1cc(O)c2c(c1)[C@H](O)[C@H]1C[C@](C)(O)[C@H](O)C[C@@H]1C2=O, the Activity (K562 [24]) is reported as “inactive” and the inhibition (K562 [25]) is reported as “inactive”.
